Reference: paper PMC10141580, “Cyclic Dichalcogenides Extend the Reach of Bioreductive Prodrugs to Harness Thiol/Disulfide Oxidoreductases: Applications to seco-Duocarmycins Targeting the Thioredoxin System” (ACS Central Science, 2023)
Where “and” joins values, the source holds several entries; their conditions need not be identical. Identical values can stand only once. Like-named read-outs stand apart in the source and are kept apart here.

Legend:
[1] = tested on: NCI-60 standardized human tumor cell line panel; experiment: cells; type: cell-based
A549 cells = experiment: Resazurin cytotoxicity assay, A549, 72 h; settings: read-out: IC50(nM): A549
Procedure: We used A549 lung cancer and HeLa cervical cancer cell lines for initial screening of the prodrugs.
Fi gure S9: Cell ular resazurin-based cytotoxi ci ty as s a y.
Dose -response curves were calculated from at least 27 incremental single concentrations over a range
of at least three log units. Individual experiments with annotated experiment numbers are shown for each prodrug

SMILES: COc1cc2cc(C(=O)N3C[C@@H](CCl)c4c3cc(OC(=O)N(CCC(=O)N3CCN(C)CC3)C3CCCCC3)c3ccccc43)[nH]c2c(OC)c1OC [P-CC60-CBI-TMI]
- GI50 ([1]; SNB-19, read-out: GI50): 2.2 µM
- GI50 ([1]; SR, read-out: GI50): 0.28 µM
- GI50 ([1]; SW-620, read-out: GI50): 1.9 µM
- GI50 ([1]; T-47D, read-out: GI50): 1.9 µM
- NCI-60 screening: Log(GI50) ([1]; TK-10 (RE) cell line, log10 of GI50 in M): -5.55
- GI50 ([1]; TK-10 (RE) cell line, read-out: NCI-60 screening: Raw GI50): 2.8 µM
- GI50 ([1]; TK-10, read-out: GI50): 2.8 µM
- GI50 ([1]; U251, read-out: GI50): 1.5 µM
- GI50 ([1]; UACC-62, read-out: GI50): 1.5 µM
- GI50 ([1]; UACC-257, read-out: GI50): 2 µM
- NCI-60 screening: Log(GI50) ([1]; cell line A549/ATCC (LC:A549/ATCC), TMI sheet): -5.7
- GI50 ([1]; cell line A549/ATCC (LC:A549/ATCC), TMI sheet, read-out: NCI-60 screening: Raw GI50): 2 µM
- NCI-60 screening: Log(GI50) ([1]; cell line BT-549 (BR:BT-549), TMI sheet): -5.8
- GI50 ([1]; cell line BT-549 (BR:BT-549), TMI sheet, read-out: NCI-60 screening: Raw GI50): 1.6 µM
- NCI-60 screening: Log(GI50) ([1]; cell line CCRF-CEM (LE:CCRF-CEM), TMI sheet): -6
- NCI-60 screening: Log(GI50) ([1]; cell line COLO 205 (CO:COLO 205), TMI sheet): -5.86
- GI50 ([1]; cell line COLO 205 (CO:COLO 205), TMI sheet, read-out: NCI-60 screening: Raw GI50): 1.4 µM
- NCI-60 screening: Log(GI50) ([1]; cell line EKVX (LC:EKVX), TMI sheet): -5.71
- GI50 ([1]; cell line EKVX (LC:EKVX), TMI sheet, read-out: NCI-60 screening: Raw GI50): 1.9 µM
- NCI-60 screening: Log(GI50) ([1]; cell line HCC-2998 (CO:HCC-2998), TMI sheet): -5.82
- GI50 ([1]; cell line HCC-2998 (CO:HCC-2998), TMI sheet, read-out: NCI-60 screening: Raw GI50): 1.5 µM
- NCI-60 screening: Log(GI50) ([1]; cell line HCT-15 (CO:HCT-15), TMI sheet): -5.76
- GI50 ([1]; cell line HCT-15 (CO:HCT-15), TMI sheet, read-out: NCI-60 screening: Raw GI50): 1.7 µM
- NCI-60 screening: Log(GI50) ([1]; cell line HCT-116 (CO:HCT-116), TMI sheet): -5.82
- GI50 ([1]; cell line HCT-116 (CO:HCT-116), TMI sheet, read-out: NCI-60 screening: Raw GI50): 1.5 µM
- NCI-60 screening: Log(GI50) ([1]; cell line HL-60(TB) (LE:HL-60(TB)), TMI sheet): -6.12
- NCI-60 screening: Log(GI50) ([1]; cell line HOP-62 (LC:HOP-62), TMI sheet): -6.23
- GI50 ([1]; cell line HOP-62 (LC:HOP-62), TMI sheet, read-out: NCI-60 screening: Raw GI50): 0.59 µM
- NCI-60 screening: Log(GI50) ([1]; cell line HOP-92 (LC:HOP-92), TMI sheet): -5.6
- NCI-60 screening: Log(GI50) ([1]; cell line HT29 (CO:HT29), TMI sheet): -5.82
- GI50 ([1]; cell line HT29 (CO:HT29), TMI sheet, read-out: NCI-60 screening: Raw GI50): 1.5 µM
- NCI-60 screening: Log(GI50) ([1]; cell line K-562 (LE:K-562), TMI sheet): -6.17
- NCI-60 screening: Log(GI50) ([1]; cell line KM12 (CO:KM12), TMI sheet): -5.68
- GI50 ([1]; cell line KM12 (CO:KM12), TMI sheet, read-out: NCI-60 screening: Raw GI50): 2.1 µM
- NCI-60 screening: Log(GI50) ([1]; cell line LOX IMVI (ME:LOX IMVI), TMI sheet): -5.96
- GI50 ([1]; cell line LOX IMVI (ME:LOX IMVI), TMI sheet, read-out: NCI-60 screening: Raw GI50): 1.1 µM
- NCI-60 screening: Log(GI50) ([1]; cell line M14 (ME:M14), TMI sheet): -5.82
- GI50 ([1]; cell line M14 (ME:M14), TMI sheet, read-out: NCI-60 screening: Raw GI50): 1.5 µM
- NCI-60 screening: Log(GI50) ([1]; cell line MALME-3M (ME:MALME-3M), TMI sheet): -5.8
- GI50 ([1]; cell line MALME-3M (ME:MALME-3M), TMI sheet, read-out: NCI-60 screening: Raw GI50): 1.6 µM
- NCI-60 screening: Log(GI50) ([1]; cell line MCF7 (BR:MCF7), TMI sheet): -6.5
- NCI-60 screening: Log(GI50) ([1]; cell line MDA-MB-435 (ME:MDA-MB-435), TMI sheet): -5.75
- NCI-60 screening: Log(GI50) ([1]; cell line MOLT-4 (LE:MOLT-4), TMI sheet): -6.23
- GI50 ([1]; cell line MOLT-4 (LE:MOLT-4), TMI sheet, read-out: NCI-60 screening: Raw GI50): 0.59 µM
- NCI-60 screening: Log(GI50) ([1]; cell line NCI-H23 (LC:NCI-H23), TMI sheet): -6.33
- NCI-60 screening: Log(GI50) ([1]; cell line NCI-H226 (LC:NCI-H226), TMI sheet): -5.84
- GI50 ([1]; cell line NCI-H226 (LC:NCI-H226), TMI sheet, read-out: NCI-60 screening: Raw GI50): 1.4 µM
- NCI-60 screening: Log(GI50) ([1]; cell line RPMI-8226 (LE:RPMI-8226), TMI sheet): -5.83
- GI50 ([1]; cell line RPMI-8226 (LE:RPMI-8226), TMI sheet, read-out: NCI-60 screening: Raw GI50): 1.5 µM
- NCI-60 screening: Log(GI50) ([1]; cell line SF-268 (CNS:SF-268), TMI sheet): -5.81
- GI50 ([1]; cell line SF-268 (CNS:SF-268), TMI sheet, read-out: NCI-60 screening: Raw GI50): 1.5 µM
- NCI-60 screening: Log(GI50) ([1]; cell line SF-295 (CNS:SF-295), TMI sheet): -5.81
- GI50 ([1]; cell line SF-295 (CNS:SF-295), TMI sheet, read-out: NCI-60 screening: Raw GI50): 1.5 µM
- NCI-60 screening: Log(GI50) ([1]; cell line SF-539 (CNS:SF-539), TMI sheet): -5.88
- NCI-60 screening: Log(GI50) ([1]; cell line SK-MEL-5 (ME:SK-MEL-5), TMI sheet): -5.79
- GI50 ([1]; cell line SK-MEL-5 (ME:SK-MEL-5), TMI sheet, read-out: NCI-60 screening: Raw GI50): 1.6 µM
- NCI-60 screening: Log(GI50) ([1]; cell line SK-MEL-28 (ME:SK-MEL-28), TMI sheet): -5.45
- NCI-60 screening: Log(GI50) ([1]; cell line SNB-19 (CNS:SNB-19), TMI sheet): -5.65
- GI50 ([1]; cell line SNB-19 (CNS:SNB-19), TMI sheet, read-out: NCI-60 screening: Raw GI50): 2.2 µM
- NCI-60 screening: Log(GI50) ([1]; cell line SR (LE:SR), TMI sheet): -6.56
- NCI-60 screening: Log(GI50) ([1]; cell line SW-620 (CO:SW-620), TMI sheet): -5.72
- GI50 ([1]; cell line SW-620 (CO:SW-620), TMI sheet, read-out: NCI-60 screening: Raw GI50): 1.9 µM
- NCI-60 screening: Log(GI50) ([1]; cell line T-47D (BR:T-47D), TMI sheet): -5.72
- GI50 ([1]; cell line T-47D (BR:T-47D), TMI sheet, read-out: NCI-60 screening: Raw GI50): 1.9 µM
- NCI-60 screening: Log(GI50) ([1]; cell line U251 (CNS:U251), TMI sheet): -5.82
- GI50 ([1]; cell line U251 (CNS:U251), TMI sheet, read-out: NCI-60 screening: Raw GI50): 1.5 µM
- NCI-60 screening: Log(GI50) ([1]; cell line UACC-62 (ME:UACC-62), TMI sheet): -5.82
- GI50 ([1]; cell line UACC-62 (ME:UACC-62), TMI sheet, read-out: NCI-60 screening: Raw GI50): 1.5 µM
- NCI-60 screening: Log(GI50) ([1]; cell line UACC-257 (ME:UACC-257), TMI sheet): -5.7
- GI50 ([1]; cell line UACC-257 (ME:UACC-257), TMI sheet, read-out: NCI-60 screening: Raw GI50): 2 µM
- GI50 ([1]; read-out: GI50): 1.5 µM and 2.4 µM
- GI50 ([1]; read-out: NCI-60 screening: Raw GI50): 1.5 µM
- IC50 (A549 cells): 1700 nM
